Measurements: article PMC8808171, “Nonselective TRPC channel inhibition and suppression of aminoglycoside-induced premature termination codon readthrough by the small molecule AC1903” (The Journal of Biological Chemistry, 2022)

Key:
[1] = target: T1, TRPC5–C1 (Homo sapiens, UniProt P48995+Q9UL62); assay: [Ca2+]i recordings (Fura-2), concatemeric TRPC5–C1 in HEK T-REx cells; assay type: cell-based; details: activator EA (30 nM)
T1 construct: expressed in transfected cells; host or cells: HEK T-REx (tetracycline-induced)
Experimental: Based on the findings described above, we wondered whether AC1903—which is typically used as a TRPC5 inhibitor at concentrations of 30–100 μM in cellular assays ([29], [56])—might have limited selectivity for TRPC5 channels and whether its effect on intracellular G418 levels and PTC readthrough might be the consequence of inhibition of other or multiple targets. All well-characterized TRPC channel inhibitors reported to date modulate multiple TRP(C) channels ([34], [35], [36]). […] Because limited data for the selectivity of AC1903 are available in the public domain, we decided to profile AC1903 against a selection of calcium-permeable cation channels by intracellular calcium ([Ca^2+]i) recordings using well-characterized cell lines and TRP channel activators ([46], [57], [58]), and the Ca^2+ indicator Fura-2. In these assays, cells (HEK 293, HEK T-REx, or CHO) overexpressing the relevant ion channel protein and loaded with Fura-2 AM (a cell-permeable precursor of Fura-2) were preincubated with various concentrations of AC1903 or vehicle (DMSO) for 30 min. Then, changes in ratiometric fluorescence (from background) were recorded upon addition of the respective ion channel activator.
HEK T-REx cells expressing tetracycline-inducible TRPC4, TRPC5, TRPC5–C1,TRPC4–C1, and hPiezo1 have been described previously ([46], [57], [59], [78]). […]

[2] = system: WT HEK 293 cells; assay: Carbachol-mediated [Ca2+]i response in WT HEK 293 cells; assay type: cell-based; details: carbachol (100 μM), n/N = 1/6
Experimental: To test the effect of AC1903 on TRPC4 channels, we initially attempted to use carbachol to activate TRPC4:C4 channels, in line with patch-clamp experiments reported by Zhou et al. ([29]). […] Therefore, we used the selective TRPC1/4/5 activator EA and the physiological TRPC4/5 activator S1P instead.
[Ca^2+]i recordings were carried out using the ratiometric Ca^2+ dye Fura-2. 24 h prior to experiments, cells were plated either onto black, clear bottom poly-D-lysine-coated 96-well plates (HEK cells) or clear 96-well plates (A498 cells, CHO cells) at 50,000 cells per well (HEK cells) or 20,000 cells per well (A498 cells, CHO cells). For tetracycline-inducible HEK T-REx cells, protein expression was induced with tetracycline (TRPC channels: 1 μg ml^−1; hPiezo1: 100 ng ml^−1) at this point. To load cells with the Fura-2 dye, media was removed and cells were incubated with standard bath solution (SBS) containing 2 μM Fura-2 acetoxymethyl ester (Fura-2 AM; Thermo Fisher Scientific) and 0.01% pluronic acid for 1 h at 37 °C. SBS contained (in mM): NaCl 130, KCl 5, glucose 8, HEPES 10, MgCl2 1.2 and CaCl2 1.5. After this incubation, cells were washed twice with fresh SBS. […]
Inhibition of G418-induced premature stop codon readthrough
Figure S7. […] Responses were calculated at 70-80 s compared to [Ca2+]i at baseline (0-55 s). […]

T1 sequence (Q9UL62+P48995 fused): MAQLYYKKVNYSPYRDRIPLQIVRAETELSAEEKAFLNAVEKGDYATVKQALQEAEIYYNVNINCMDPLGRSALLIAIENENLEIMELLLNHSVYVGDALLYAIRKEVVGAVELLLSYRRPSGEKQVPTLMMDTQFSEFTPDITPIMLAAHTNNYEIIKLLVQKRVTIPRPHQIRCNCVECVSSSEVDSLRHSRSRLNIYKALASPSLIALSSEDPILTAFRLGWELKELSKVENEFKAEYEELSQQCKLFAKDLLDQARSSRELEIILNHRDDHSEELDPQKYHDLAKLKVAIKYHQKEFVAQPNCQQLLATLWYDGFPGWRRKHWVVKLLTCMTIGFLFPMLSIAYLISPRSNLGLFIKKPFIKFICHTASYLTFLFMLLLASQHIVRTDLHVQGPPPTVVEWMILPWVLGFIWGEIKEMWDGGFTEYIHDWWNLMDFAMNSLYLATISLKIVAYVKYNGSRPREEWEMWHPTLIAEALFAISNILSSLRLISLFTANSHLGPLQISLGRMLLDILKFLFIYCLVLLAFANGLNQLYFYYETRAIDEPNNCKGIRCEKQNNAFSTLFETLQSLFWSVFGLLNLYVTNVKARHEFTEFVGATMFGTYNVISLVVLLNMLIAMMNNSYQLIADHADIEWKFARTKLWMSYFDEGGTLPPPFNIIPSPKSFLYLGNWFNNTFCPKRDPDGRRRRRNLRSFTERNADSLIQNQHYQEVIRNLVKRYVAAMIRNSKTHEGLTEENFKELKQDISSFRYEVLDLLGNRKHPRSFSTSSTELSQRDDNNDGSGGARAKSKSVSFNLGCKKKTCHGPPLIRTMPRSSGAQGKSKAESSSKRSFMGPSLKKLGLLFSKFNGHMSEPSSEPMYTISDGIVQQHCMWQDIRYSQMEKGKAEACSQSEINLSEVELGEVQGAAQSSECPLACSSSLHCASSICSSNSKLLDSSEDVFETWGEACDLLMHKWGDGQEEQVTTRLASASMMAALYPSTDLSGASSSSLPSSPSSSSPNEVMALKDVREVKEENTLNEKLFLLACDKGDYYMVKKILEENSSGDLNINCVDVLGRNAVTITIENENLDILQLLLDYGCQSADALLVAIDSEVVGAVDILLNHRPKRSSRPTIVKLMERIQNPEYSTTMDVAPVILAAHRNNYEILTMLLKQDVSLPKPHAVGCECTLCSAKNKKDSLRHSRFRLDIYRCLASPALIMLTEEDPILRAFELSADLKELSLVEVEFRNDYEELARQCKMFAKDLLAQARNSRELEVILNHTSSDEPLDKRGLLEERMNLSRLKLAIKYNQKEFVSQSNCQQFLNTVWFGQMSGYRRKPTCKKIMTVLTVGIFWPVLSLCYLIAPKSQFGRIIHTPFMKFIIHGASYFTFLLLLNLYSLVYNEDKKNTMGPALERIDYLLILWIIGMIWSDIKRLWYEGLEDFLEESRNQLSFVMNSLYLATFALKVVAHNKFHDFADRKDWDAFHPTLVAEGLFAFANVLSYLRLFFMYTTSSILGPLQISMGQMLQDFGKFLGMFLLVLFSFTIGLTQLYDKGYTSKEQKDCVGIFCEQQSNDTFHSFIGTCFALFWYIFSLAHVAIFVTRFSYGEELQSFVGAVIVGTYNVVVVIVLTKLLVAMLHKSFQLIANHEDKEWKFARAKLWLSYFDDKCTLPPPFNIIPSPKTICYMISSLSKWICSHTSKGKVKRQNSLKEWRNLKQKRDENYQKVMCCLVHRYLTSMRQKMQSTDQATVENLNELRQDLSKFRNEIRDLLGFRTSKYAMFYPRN

Structure (SMILES): c1ccc(Cn2c(NCc3ccco3)nc3ccccc32)cc1 [AC1903]
- IC50 ([1]; HEK T-REx): 4.7 µM
- Hill slope [1]: -1.3
- IC50 [2]: 20 µM
